Values joined by “and” are separate entries in the source; they are usually repeats but may differ in a detail not shown here. Equal entries are not always repeated. “Also recorded” adds a separate entry of the source. Where two headings read alike, the source gives them in different places.
Assays:
[1] = tested on: KA receptors (rat forebrain membranes); test: In vitro receptor binding: inhibition of specific [3H]KA binding; settings: for Percent inhibition of specific ligand binding, [3H]KA: 50 μM compound, 2 nM ligand, pH 7.4, 90 min, 2° C., mean ± S.E.M. of three determinations
Method: (§1) The potency of the compound described in example IV to inhibit the specific binding of various EAA ligands to rat forebrain membranes was examined using standard in vitro binding techniques. Specifically, example IV was evaluated for potency to inhibit the specific binding of [^3 H]kainic acid ([^3 H]KA),[^3 H]RS-α-amino-3-hydroxy-5-methyl-4-isoxazole propionic acid([^3 H]AMPA) and [^3 H]3-(2-carboxypiperazin-4-yl) propyl-1-phosphonic acid([^3 H]CPP) to KA, QUIS and NMDA receptors, respectively.
(§2) Methods were as follows: rat forebrain membranes were prepared as described by Enna and Synder [Mol. Pharmacology, 13, 422-453 (1977)] and the "buffy coat" preparation was washed three additional times by centrifugation (45,000 g; 10 min; 4° C.) with intermittent resuspensions (20 vol; w/v) in fresh buffer (Tris HCl; 0.05M; pH 7.4; 23° C.). Following the final wash, pellets were stored frozen (-20° C.) until used.
(§3) On the day of assay, pellets were thawed to room temperature, resuspended in buffer (Tris HCl; 0.05 M; various pH; 23° C.) and washed three additional times by centrifugation as described in the preceeding paragraph. For assay, the washed tissue was resuspended in buffer at a concentration of 10 mg/mL. All procedures were performed using triplicate incubations in a final volume of 2 mL which consisted of the tissue suspension (1 mL), ligand, the compound(s) of interest and 1 mL of buffer. In every instance, Glu (10^-3 M) was used to determine nonspecific binding. Assays were terminated by centrifugation (45,000 g; 10 min; 4° C.), the pellet was washed rapidly and superficially with 2×2.5 mL of ice-cold buffer and dissolved in 1 mL of Protosol® (New England Nuclear, Boston, Mass.). Following the addition of 6 mL of Econfluor® (New England Nuclear, Boston, Mass.) radioactivity was determined using conventional liquid scintillation spectrophotometry.
Specific binding of [^3 H]KA (S.A.=60 Ci/mmol, New England Nuclear, Boston, Mass.) was examined according to the method of London and Coyl [(Mol. Pharmacol., 15, 492-505 (1979)] using Tris HCl buffer (pH 7.4). Incubations were conducted for 90 min at 2° C. using a final ligand concentration of 2 nM.
(§4) All assays were performed on three separate occassions. Appropriate reference compounds were evaluated in each assay and experiment using parallel incubations. All compounds were examined at a single concentration (50 uM) and activity was expressed as the percent inhibition of specific binding of each ligand.
(§5) Method(s) have been described in the text. Values shown are the means ±S.E.M. of three separate determinations performed using triplicate incubations and are expressed as the percent inhibition of specifically bound ligand. All drugs were tested at a single concentration of 50 μM.

[2] = tested on: NMDA receptors (rat forebrain membranes); test: In vitro receptor binding: inhibition of specific [3H]CPP binding; settings: for Inhibition of [3H]CPP binding / interaction with NMDA-type receptors, in words: 50 μM; for Percent inhibition of specific ligand binding, [3H]CPP: 50 μM compound, 8 nM ligand, pH 7.4, 30 min, 23° C., mean ± S.E.M. of three determinations
Method: as §1, §2, §3
Specific binding of [^ 3H]CPP (S.A.=27 Ci/mmol, New England Nuclear, Boston, Mass.) was examined using a modification of the method of Murphy et al., [(J. Pharmacol. Exp. therap., (in press)] using Tris HCl buffer (pH 7.4). Incubations were conducted for 30 min at 23° C. using a final ligand concentration of 8 nM.
as §4, §5

[3] = tested on: QUIS receptors (rat forebrain membranes); test: In vitro receptor binding: inhibition of specific [3H]AMPA binding; settings: for Inhibition of [3H]AMPA binding, in words: 50 μM; for Percent inhibition of specific ligand binding, [3H]AMPA: 50 μM compound, 4 nM ligand, pH 6.9, 100 mM KSCN, 60 min, 4° C., mean ± S.E.M. of three determinations
Method: as §1, §2, §3
Specific [^3 H]AMPA (S.A.=27.5 Ci/mmol, New England Nuclear, Boston, Mass.) binding was examined according to the method of Murphy et al., [(Soc. Neurosci. Abs., 11, 109, (1985)] using Tris HCl buffer (pH 6.9) supplemented with 100 mM KSCN. Incubations were conducted for 60 min at 4° C. using a final ligand concentration of 4 nM.
as §4, §5

[4] = tested on: pentylenetetrazol (PTZ)-induced seizures; test: Protection against pentylenetetrazol (PTZ)-induced seizures; assay type: in vivo, male CF-1 mice
Method: The anticonvulsant properties of example IV and of the reference compound DL(±)AP7 against seizures induced by subcutaneous (s.c.) injection of pentylenetetrazol (PTZ) were evaluated using mice.
For testing, PTZ was dissolved in saline (0.9%; w/v) and administered to male CF-1 mice (Charles Rivers: 20-25 g) at a dose of 90 mg/kg (s.c.) fifteen minutes (ICV) or thirty minutes (IP) after the administration of the test compounds. Example IV and the reference compound were dissolved in sline and administered in a final volume of 5 μL (ICV) or 200 μL (IP). […] Presence of seizures was defined as one or more episodes of clonic activity having a duration of five seconds or greater. Following preliminary dose-ranging studies, dose-response curves were generated using at least five different doses of each compound with eight animals at each dose. The dose of drug required to protect fifty percent (ED50) of the test animals from PTZ-induced seizures was calculated using log-logit analysis. Ninety-five percent confidence intervals (CL95) were calculated using the method of Litchfield and Wilcoxon [J. Pharmacol. Exp. Therap., 96, 99-113 (1949)].
(§6) Method(s) have been described in the text. Where ED50 's are shown,
(§7) *Where ninetyfive percent confidence limits are not shown, the values

[5] = tested on: maximal electroshock (MES)-induced seizures; test: Protection against maximal electroshock (MES)-induced seizures; assay type: in vivo, male CF-1 mice; settings: for ED50: Mus musculus, 0.5 h, ip, 30 min prior; for ED50 / ED50, maximal electroshock, icv: 50 mA, 0.2 s; for ED50, maximal electroshock, icv: 15 min prior
Method: The anticonvulsant properties of example IV and of the reference compound DL(±)AP7 against seizures induced by maximal electroshock (MES) were evaluated using mice.
For testing, electrodes were clipped to the ears of male CF-1 mice (20-25 g; Charles Rivers) and a current of 50 mA was delivered for 0.2 seconds to produce seizures. Drugs were dissolved in saline (0.9%; w/v) and administered fifteen minutes (ICV) or thirty minutes (IP) prior to testing. Injection protocols and group size were identicl to those described in example VI. […] Seizures were scored as being present or absent. Data was calculated as described in example VI.
as §6, §7

[6] = tested on: cultured rat hippocampal neurones; settings: cited from earlier work
[7] = icv, 15 min before PTZ 90 mg/kg s.c.
[8] = ">" = maximum dose tested, no animals protected, read-out: ED50, maximal electroshock, ip (mg/kg)
[9] = ">" = maximum dose tested, no animals protected, read-out: ED50, maximal electroshock, ip (mmol/kg)
[10] = ">" = maximum dose tested, no animals protected
[11] = Mus musculus, ip, 30 min before PTZ 90 mg/kg s.c.; ">" = maximum dose tested, no animals protected

Row | Molecule | Percent inhibition of specific ligand binding, [3H]KA [1] | Inhibition of [3H]CPP binding / interaction with NMDA-type receptors, in words [2] | Percent inhibition of specific ligand binding, [3H]CPP [2] | Inhibition of [3H]AMPA binding, in words [3] | Percent inhibition of specific ligand binding, [3H]AMPA [3] | ED50, pentylenetetrazol, icv (nmoles) [4, 7] | ED50, pentylenetetrazol, icv (ug) [4, 7] | ED50, maximal electroshock, icv [5, 10] | further results
1 | Cc1onc(O)c1CC(N)C(=O)O (racemic) [AMPA, RS-α-amino-3-hydroxy-5-methyl-4-isoxazole propionic acid] | 64 ± 4% | without appreciable activity | 7 ± 4% | most potent inhibitors of binding | 100 ± 0% |  |  |  | 
2 | NC(CCCCCP(=O)(O)O)C(=O)O (racemic) [DL(±)AP7] |  |  |  |  |  | 6.8 nmol | 1.37 µg | 6.8 µg and 7.3 µg | ED50 ([4]; Mus musculus; ip, 30 min before PTZ 90 mg/kg s.c.): 780 to 880 µmol/kg; ED50 ([4]; Mus musculus; ip, 30 min before PTZ 90 mg/kg s.c.; ">" = maximum dose tested, no animals protected): 176 to 199 mg/kg; Attenuation of MES-induced seizure activity, in words ([5]; ICV): dose-dependent protection; ED50 [5, 8]: 127 to 170 mg/kg; ED50 [5, 9]: 0.56 to 0.76 mmol/kg; ED50, maximal electroshock, icv [5]: 29 nmol and 34 nmol
3 | NC(CCC1CCCCC1CP(=O)(O)O)C(=O)O (stereo not shown) [4-(2-phosphonomethyl)cyclohexyl-2-aminobutyric acid] |  | high affinity and selectivity |  |  |  |  |  |  | Anticonvulsant activity in PTZ seizure model, in words ([4]; mice): provide protection in pentylenetetrazol (PTZ) induced seizures
4 | N[C@H](CCCP(=O)(O)O)C(=O)O [D(-)AP5, D(-)-2-amino-5-phosphonopentanoic acid] | 22 ± 1% |  | 95 ± 4% |  | 3 ± 2% |  |  |  | 
5 | N[C@H](CCCCCP(=O)(O)O)C(=O)O [D(-)AP7, D(-)-2-amino-7-phosphonoheptanoic acid] | 17 ± 2% |  | 100 ± 0% |  | 7 ± 5% |  |  |  | 
6 | NC(CC1CCCCC1CCP(=O)(O)O)C(=O)O (stereo not shown) [Example IV, 2-amino-4.5-(1,2-cyclohexyl)-7-phosphonoheptanoic acid] | 9 ± 4% | interacts, albeit with moderate affinity, in a highly specific manner with NMDA-type receptors | 33 ± 9% | without appreciable activity | 1 ± 1% | 0.14 nmol and 0.19 nmol | 0.04 µg and 0.06 µg | 90 µg | fold more potent than DL(±)AP7 to prevent PTZ-induced seizures, ICV ([4]; ICV, vs DL(±)AP7): 30-40 fold; fold more potent than DL(±)AP7 to prevent PTZ-induced seizures, IP ([4]; IP, vs DL(±)AP7): approximately 2 fold; ED50 ([4]; Mus musculus, ip, 30 min before PTZ 90 mg/kg s.c.): 310 µmol/kg; ED50 [4, 11]: 90 mg/kg; ED50, pentylenetetrazol, ip ([4]; ip, 30 min before PTZ 90 mg/kg s.c.): 0.47 mmol/kg; ED50, pentylenetetrazol, ip ([4]; ip, 30 min before PTZ 90 mg/kg s.c.; ">" = maximum dose tested, no animals protected): 134 mg/kg; Anticonvulsant activity in PTZ seizure model, in words ([4]; mice): potent, novel and systemically active anticonvulsant agent; Anticonvulsant activity in PTZ seizure model, in words ([4]; mice; listed as 3-(2-phosphonoethyl)cyclohexyl-2-aminopropionic acid): provide protection in pentylenetetrazol (PTZ) induced seizures; Inhibition of [3H]KA binding, in words ([1]; 50 μM): least active; Attenuation of MES-induced seizure activity, in words ([5]; ICV): moderately potent; also recorded: relative lack of potency; fold less potent as an anticonvulsant in MES compared to its activity in the PTZ seizure model ([5]; ICV, MES vs PTZ): 360 fold; fold less potent than DL(±)AP7 as an anticonvulsant in the MES test ([5]; ICV, vs DL(±)AP7): approximately 11 fold; Prevention of MES-induced seizures on systemic administration ([5]; IP, up to 350 mg/kg, n=6): failed to prevent MES-induced seizures in any animal; ED50 [5, 8]: > 350 mg/kg; ED50 [5, 9]: > 1.2 mmol/kg; ED50, maximal electroshock, icv [5]: 314 nmol; Inhibition of [3H]CPP binding / interaction with NMDA-type receptors, in words ([2]; listed as 3-(2-phosphonoethyl)cyclohexyl-2-aminopropionic acid): high affinity and selectivity
7 | NC(Cc1ccccc1CCP(=O)(O)O)C(=O)O (stereo not shown) [III, 2-Amino-4,5-benzo-7-phosphonoheptanoic acid] |  |  |  |  |  | 44 nmol | 3.2 µg | > 100 µg | ED50 [4, 11]: > 350 mg/kg
8 | C=C(C)[C@H]1CN[C@H](C(=O)O)[C@H]1CC(=O)O [KA, kainic acid] | 100 ± 0% | without appreciable activity | 3 ± 2% | moderate activity | 56 ± 5% |  |  |  | 
9 | δ-D-glutamyl glycine |  |  |  |  |  |  |  |  | Effect on toxicity of exogenously applied Glu and Asp ([6]; exogenously applied Glu and Asp): blocking the toxicity of exogenously applied Glu and Asp; Protection of neurones from degeneration ([6]; oxygen depletion): protect cultured rat hippocampal neurones from degeneration

Source: US4761405A, “Antagonists of specific excitatory amino acid neurotransmitter receptors having increased potency” (priority 1987, dated 1988)
